Measured values from US9018208B2, “Heterocycles as potassium channel modulators” (Icagen Inc., priority 2007, dated 2015).
Like-named read-outs stand apart in the source and are kept apart here.

System: SH-SY5Y M-currents (KCNQ2, KCNQ3 and KCNQ5)
Test: SH-SY5Y native cell line FLIPR assay (voltage-sensitive dye DiBAC)
Format: cell-based, mouse neuroblastoma, rat glioma hybrid cell line
Details: SH-SY5Y native cell line, read-out: SH-SY5Y EC50
In short: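 Response is peak DiBAC fluorescence change, normalised to the maximum from a positive control agent, sampled every 30 s over 25 min. Before compound addition, SH-SY5Y cells differentiated with PGE1 plus isomethylbutylxanthine were dye-loaded for 1 h in EBSS with […] DiBAC.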

| EC50 (FLIPR assay, Table 2) [nM] | Compound | other results |
| --- | --- | --- |
| < 500 | CC(C)(C)CC(=O)Nc1nc2ccc(F)cn2c1-c1cccc(OC(F)(F)F)c1 [Compound 182, N-(6-fluoro-3-(3-(trifluoromethoxy)phenyl)imidazo[1,2-a]pyridin-2-yl)-3,3 dimethylbutanamide] | – |
| < 500 | O=C(CC(F)(F)F)Nc1nc2ccc(F)cn2c1-c1ccc(OC(F)(F)F)cc1 [Compound 252, 3,3,3-trifluoro-N-(6-fluoro-3-(4-(trifluoromethoxy)phenyl)imidazo[1,2-a]pyridin-2-yl)propanamide] | – |
| < 500 | CC(C)C(C)C(=O)Nc1nc2ccc(F)cn2c1-c1ccc(OC(F)(F)F)c(F)c1 (centres unmarked) [Compound 312, N-(6-fluoro-3-(3-fluoro-4-(trifluoromethoxy)phenyl)imidazo[1,2-a]pyridin-2-yl)-2,3-dimethylbutanamide] | – |
| < 500 | O=C(Nc1nc2ccc(F)cn2c1-c1cccc(C(F)(F)F)c1)C1CCC(F)(F)CC1 [Compound 328, 4,4-difluoro-N-(6-fluoro-3-(3-(trifluoromethyl)phenyl)imidazo[1,2-a]pyridin-2-yl)cyclohexanecarboxamide] | – |
| < 500 | O=C(CC1CC2CCC1C2)Nc1nc2ccc(F)cn2c1-c1ccc(F)cc1 (centres unmarked) [Compound 138, 2-(bicyclo[2.2.1]heptan-2-yl)-N-(6-fluoro-3-(4-fluorophenyl)imidazo[1,2-a]pyridin-2-yl)acetamide] | – |
| 500 to 3000 | O=C(CCc1ccccc1)Nc1nc2ccc(F)cn2c1-c1ccc(F)cc1 [Compound 134, N-(6-fluoro-3-(4-fluorophenyl)imidazo[1,2-a]pyridin-2-yl)-3-phenylpropanamide] | – |
| < 500 | CC(C)(C)CCC(=O)Nc1nc2ccc(F)cn2c1-c1cccc(C(F)(F)F)c1 [Compound 283, N-(6-fluoro-3-(3-(trifluoromethyl)phenyl)imidazo[1,2-a]pyridin-2-yl)-4,4-dimethylpentanamide] | – |
| 500 to 3000 | CC(CC(=O)Nc1nc2ccc(F)cn2c1-c1cc(F)cc(F)c1)C(F)(F)F (centres unmarked) [Compound 230, N-(3-(3,5-difluorophenyl)-6-fluoroimidazo[1,2-a]pyridin-2-yl)-4,4,4-trifluoro-3-methylbutanamide] | – |
| 500 to 3000 | O=C(CCC(F)(F)F)Nc1nc2ccc(F)cn2c1-c1cccc(OC(F)(F)F)c1 [Compound 275, 4,4,4-trifluoro-N-(6-fluoro-3-(3-(trifluoromethoxy)phenyl)imidazo[1,2-a]pyridin-2-yl)butanamide] | – |
| < 500 | CC(C)C(C)C(=O)Nc1nc2ccc(F)cn2c1-c1cccc(OC(F)(F)F)c1 (centres unmarked) [Compound 278, N-(6-fluoro-3-(3-(trifluoromethoxy)phenyl)imidazo[1,2-a]pyridin-2-yl)-2,3-dimethylbutanamide] | – |
| 500 to 3000 | CC(C)(C)CC(=O)Nc1nc2ccccn2c1-c1ccc(F)cc1 [Compound 221, N-(3(4-fluorophenyl)imidazo[1,2-a]pyridin-2-yl)-3,3-dimethylbutanamide] | – |
| 3000 to 10000 | CC(=O)OCC(C)(C)CC(=O)Nc1nc2ccc(F)cn2c1-c1ccc(C(F)(F)F)cc1 [Compound 189, 4-(6-fluoro-3-(4-(trifluoromethyl)phenyl)imidazo[1,2-a]pyridin-2-ylamino)-2,2-dimethyl-4-oxobutyl acetate] | – |
| 500 to 3000 | CC(C)(C)CC(=O)Nc1nc2ccc(F)cn2c1-c1ccccc1 [Compound 93, N-(6-fluoro-3-phenylimidazo[1,2-a]pyridin-2-yl)-3,3-dimethylbutanamide] | – |

More lines, now with the values behind:

| Compound | EC50 (FLIPR assay, Table 2) [nM] | other results |
| --- | --- | --- |
| CC(C)(C)CC(=O)Nc1nc2ncccn2c1-c1cccc(Cl)c1 [Compound 329, N-(3-(3-chlorophenyl)imidazo[1,2-a]pyrimidin-2-yl)-3,3-dimethylbutanamide] | 3000 to 10000 | – |
| Cc1ccc2nc(NC(=O)Cc3ccc(F)cc3)c(-c3cc(C(F)(F)F)ccn3)n2n1 [Compound 395, 2-(4-fluorophenyl)-N-(6-methyl-3-(4-(trifluoromethyl)pyridin-2-yl)imidazo[1,2-b]pyridazin-2-yl)acetamide] | – | EC50 (FLIPR assay (Table 3)): 3000 to 10000 nM |
| CC(C)(C)CC(=O)Nc1nc2ccc(C(F)(F)F)cn2c1C1CCCCC1 [Compound 33, N-(3-cyclohexyl-6-(trifluoromethyl)imidazo[1,2-a]pyridin-2-yl)-3,3-dimethylbutanamide] | – | EC50 (FLIPR assay, Table 1): < 500 nM |
| O=C(Nc1nc2ccc(F)cn2c1I)C(F)(F)F [Compound 11, 2,2,2-trifluoro-N-(6-fluoro-3-iodoimidazo[1,2-a]pyridin-2-yl)acetamide] | – | EC50 (FLIPR assay, Table 1): 3000 to 10000 nM |
| O=C(Cc1ccc(F)cc1)Nc1nc2ccccn2c1-c1cc(C(F)(F)F)ccn1 [Compound 403, 2-(4-fluorophenyl)-N-(3-(4-(trifluoromethyl)pyridin-2-yl)imidazo[1,2-a]pyridin-2-yl)acetamide] | – | EC50 (FLIPR assay (Table 3)): < 500 nM |
| CC(C)(C)Cc1c(NC(=O)CC(F)(F)F)nc2ccc(C(F)(F)F)cn12 [Compound 60, 3,3,3-trifluoro-N-(3-neopentyl-6-(trifluoromethyl)imidazo[1,2-a]pyridin-2-yl)propanamide] | – | EC50 (FLIPR assay, Table 1): < 500 nM |
| O=C(CC1CCCC1)Nc1nc2cc(C(F)(F)F)ccn2c1-c1ccccc1 [Compound 98, 2-cyclopentyl-N-(3-phenyl-7-(trifluoromethyl)imidazo[1,2-a]pyridin-2-yl)acetamide] | 500 to 3000 | – |
| CC(C)C(C)C(=O)Nc1nc2ccc(F)cn2c1Cc1ccc(C(F)(F)F)cc1 (centres unmarked) [Compound 30, N-(6-fluoro-3-(4-(trifluoromethyl)benzyl)imidazo[1,2-a]pyridin-2-yl)-2,3-dimethylbutanamide] | – | EC50 (FLIPR assay, Table 1): 500 to 3000 nM |
| CC(C)CCc1c(NC(=O)C2CCCC2)nc2ccc(C(F)(F)F)cn12 [Compound 53, N-(3-isopentyl-6-(trifluoromethyl)imidazo[1,2-a]pyridin-2-yl)cyclopentanecarboxamide] | – | EC50 (FLIPR assay, Table 1): < 500 nM |
| O=C(Cc1ccc(F)cc1)Nc1nc2ccc(F)cn2c1-c1nccs1 [Compound 384, N-(6-fluoro-3-(thiazol-2-yl)imidazo[1,2-a]pyridin-2-yl)-2-(4-fluorophenyl)acetamide] | – | EC50 (FLIPR assay (Table 3)): 500 to 3000 nM |
| O=C(Nc1nc2ccc(C(F)(F)F)cn2c1C1CC1)C1CCC(F)(F)CC1 [Compound 75, N-(3-cyclopropyl-6-(trifluoromethyl)imidazo[1,2-a]pyridin-2-yl)-4,4-difluorocyclohexanecarboxamide] | – | EC50 (FLIPR assay, Table 1): < 500 nM |
| O=C(CC1CCCC1)Nc1nc2ccccn2c1-c1ccc(OC(F)(F)F)cc1 [Compound 226, 2-cyclopentyl-N-(3-(4-(trifluoromethoxy)phenyl)imidazo[1,2-a]pyridin-2-yl)acetamide] | < 500 | – |
| CC(C)(C)CC(=O)Nc1nc2ncc(Cl)cn2c1-c1cccc(Cl)c1 [Compound 319, N-(6-chloro-3-(3-chlorophenyl)imidazo[1,2-a]pyrimidin-2-yl)-3,3-dimethylbutanamide] | 3000 to 10000 | – |
| COc1ccn2c(-c3ccc(C(F)(F)F)cc3)c(NC(=O)Cc3ccccc3)nc2c1 [Compound 246, N-(7-methoxy-3-(4-(trifluoromethyl)phenyl)imidazo[1,2-a]pyridin-2-yl)-2-phenylacetamide] | 500 to 3000 | – |
| O=C(CCC(F)(F)F)Nc1nc2cc(C(F)(F)F)ccn2c1-c1ccccc1 [Compound 105, 4,4,4-trifluoro-N-(3-phenyl-7-(trifluoromethyl)imidazo[1,2-a]pyridin-2-yl)butanamide] | 3000 to 10000 | – |
| Cc1ccc2nc(NC(=O)CC(C)C(F)(F)F)c(C3CC3)n2n1 (centres unmarked) [Compound 76, N-(3-cyclopropyl-6-methylimidazo[1,2-b]pyridazin-2-yl)-4,4,4-trifluoro-3-methylbutanamide] | – | EC50 (FLIPR assay, Table 1): 3000 to 10000 nM |
